Test results taken from patent publication US9618513B2, “Compositions and methods for detecting and treating colorectal cancer” (The Regents of the University of Michigan, priority 2014, dated 2017).

What was measured:
[1] = tested on: primary colon cancer cell line SBCA; experiment: Proliferation of primary colon cancer cell line SBCA; assay type: cell-based, human
Protocol: FIG. 21A-E A. Dot1L/H3K79me2 inhibitor EZP004777 (10 uM) had no effect on SUZ12 expression but reduce Sox2. B. EZP004777 had no effect on primary colon cancer cell line SBCA. C. EZH2 inhibitor DZNep reduced SBCA cell proliferation. D. SUZ12 knockdown reduced H3K27m3 level. E. Effect of I1-22 on tumor sphere assay was analyzed in shEZH2, shSUZ12 and Dznep treated cells.
Three primary colon cancer cell lines (SB, WR, JR) were established from fresh colon tissues. These primary colon cancer cells and DLD1 (ATCC) were studied. Colon cancer cells were treated with recombinant IL-22 (R&D) for different time points. The EZH2 inhibitor DZNep was added in conventional or sphere culture (see, e.g., Kryczek, I., et al., (2012) International journal of cancer 130, 29-39). Tumor cell sphere formation and gene expression were examined (see, e.g., Kryczek, I., et al., (2012) International journal of cancer 130, 29-39).

DLD-1 colon cancer cells = experiment: In vivo tumor formation of DLD-1 cells in NSG mice; set-up: species or system NOD/Shi-scid/IL-2Rγnull (NSG) mice
Excerpt: (A), IL-22 is expressed in colon cancer tissues. IL-22 mRNA was detected by real-time PCR in colon cancer tissues and peripheral blood. *P<0.05 compared to blood, 20 colon cancer patients. (B-D), Endogenous IL-22 promotes colon carcinogenesis. Single cells (10^7) isolated from colon cancer tissue were mixed with anti-IL-22 antibody or control mAb, and then subcutaneously injected to NSG mice. Tumor growth (B), incidence (C), and animal survival (D) are shown. (P<0.05 for all, n=5 per group). (E-G) Recombinant IL-22 promotes colon carcinogenesis. DLD-1 colon cancer cells (10^5) were pre-incubated with IL-22 (20 ng/ml) for 1 hour, and then subcutaneously injected to NSG mice. Tumor growth (E), incidence (F), and animal survival (G) are shown. (P<0.05 for all, n=5 per group). (H, I) IL-22 enhances colon cancer sphere formation. DLD-1 colon cancer cells were pre-incubated for 24 hours with IL-22. Sphere assay was performed with 2,000 cells. Representative image of spheres (H) and the mean numbers of spheres (I) are shown. *P<0.05, n=5. (J) IL-22 increases ALDH1 activity in colon cancer cells. Colon cancer cell lines (DLD-1 and HT29) and two primary colon cancer cells (1, 2) were cultured with IL-22 for 24 hours. ALDH activity was determined by FACS based on aldefluor fluorescence. Cells treated with DEAB inhibitor were negative controls. Results are expressed as fold changes of ALDH expression. (P<0.05 for all, n=3 repeats per group). (K-M) IL-22 stimulates core stem cell gene expression in colon cancer cells. DLD-1 colon cancer cells were cultured with IL-22 (20 ng/ml). The mRNA of stem cell core gene was detected by real-time PCR (K) and proteins were detected by western blotting (L, M). (*P<0.05, n=5).
IL-22 treated 10^6 DLD-1 cells were inoculated into NSG mice. Tumor incidence (A) and tumor growth (B) were recorded. n=5 per group, P<0.05.
To confirm the tumorigenic potential of endogenous IL-22, different concentrations of a colorectal adenocarcinoma cancer cell line, DLD-1 cells, were injected into the NSG mice to determine a nontumorigenic concentration. […] However, exogenous IL-22 administration enabled tumor formation with 10^5DLD-1 cells as shown by increased tumor volume (FIG. 1E) and incidence (FIG. 1F) and decreased mouse survival (FIG. 1G). When 10^6 DLD-1 cells were inoculated into mice, IL-22 accelerated tumor development (FIG. 13A) and growth as well (FIG. 13B). Thus, IL-22 may enhance tumorigenesis by altering cancer stem cell properties.
Colon cancer cells (10^2-5×10^6) in 100 μl of buffered saline were subcutaneously injected into dorsal tissues of female NOD/Shi-scid/IL-2Rγnull (NSG) mice (6-8 weeks old, Jackson Lab, Bar Harbor, Me.) (see, e.g., Curiel, T. J. et al. (2004) Nat Med 10, 942-949; Curiel, T. J. et al. (2003) Nat Med 9, 562-567; Kryczek, I. et al. (2012) Int J Cancer 130, 29-39). Tumor size was measured two times weekly using calipers fitted with a Vernier scale. Tumor volume was calculated based on three perpendicular measurements (see, e.g., Curiel, T. J. et al. (2004) Nat Med 10, 942-949; Curiel, T. J. et al. (2003) Nat Med 9, 562-567). Tumor incidence was monitored.

EZH2, SUZ12, EED, CBX8 = experiment: PcG / PRC2 component expression (real-time PCR, western blot); assay type: cell-based, human
Protocol: A, C. Cell proliferation was analyzed using H^3 Thymidine Incorporation. B. The level of total H3K79m2 and H3K27me3 was measured by Western Blot. D. PcG proteins of EZH2, EED, SUZ12 was increased with IL-22(20 ng/ml) treatment. E. EZH2, SUZ12 and EED was detected by Western Blot after IL-22 treated for 24 h or 48 h. F. EZH2 inhibitor DZNep reduced cell proliferation. G.H. The efficiency of EZH2 and SUZ12 knock down was tested by Western Blot. I.J. Cell proliferation was analyzed using H^3 Thymidine Incorporation after knock down of EZH2 and SUZ12. K.L. Relative expression of cyclin-dependent kinase inhibitors (p16 and p18) in shEZH2, shSUZ12 and Dznep treated cells after IL-22 treatment. M. The level of H3K27me3 in the promoter of p16 and p18 was analyzed by ChIP assay.
A. The protein level of phosphorylated STAT3, STAT1 and STATS were activated by IL-22. B. The effect of STAT3 knock down. C. The effect of IL-22 on cell proliferation was analyzed using H^3 Thymidine Incorporation in Stat3 knock down cells. D. Knock down of STAT3 reduced the expression of EZH2 and SUZ12. E. Based on the ENCODE STAT3-ChIP-Seq data base, STAT3 occupancy on the promoter areas of SUZ12 and EED is shown. F. SUZ12/EED DNA was detected by ChIP assay using an antibody against STAT3, c-fos was used as a positive control.
The mRNAs were quantified by real-time RT-PCR. SYBR Green Master Mix was used to detect fluorescence. Relative expression was calculated according to the Ct value with normalization to GAPDH.
Western Blot assay was performed with specific antibodies against human Stat3, phosphorylate Stat3 (Cell Signaling), Sox2, SUZ12(Santa Cruz biotechnology), EZH2 (Abcam), H3K27me3 and H3K79me2 (Millipore).

[2] = 10^5 DLD-1 cells pre-incubated with IL-22 (20 ng/ml) 1 hour

| Molecule | SBCA cell proliferation [1] | mouse survival (DLD-1 colon cancer cells; [2]) | tumor incidence (DLD-1 colon cancer cells; [2]) | tumor volume (DLD-1 colon cancer cells; [2]) | tumor development (incidence) (DLD-1 colon cancer cells; 10^6 IL-22 treated DLD-1 cells) | tumor growth (DLD-1 colon cancer cells; 10^6 IL-22 treated DLD-1 cells) | protein level of EZH2 and SUZ12 (EZH2, SUZ12, EED, CBX8; FIG. 19D) | CBX8 expression (EZH2, SUZ12, EED, CBX8; IL-22 20 ng/ml) | mRNA expression level of EED (EZH2, SUZ12, EED, CBX8; IL-22 20 ng/ml) | mRNA expression level of SUZ12 (EZH2, SUZ12, EED, CBX8; IL-22 20 ng/ml) | EED and SUZ12 expression (western blotting) (EZH2, SUZ12, EED, CBX8; IL-22 24 h or 48 h) | EZH2 expression (western blotting) (EZH2, SUZ12, EED, CBX8; IL-22 24 h or 48 h) |
| --- | --- | --- | --- | --- | --- | --- | --- | --- | --- | --- | --- | --- |
| CC(C)N(CCCNC(=O)Nc1ccc(C(C)(C)C)cc1)C[C@H]1O[C@@H](n2ccc3c(N)ncnc32)[C@H](O)[C@@H]1O [EPZ004777] | no effect | – | – | – | – | – | – | – | – | – | – | – |
| IL-22: recombinant IL-22 (R&D systems), cytokine interleukin-22 | – | decreased | increased | increased | accelerated | accelerated | up regulate | increased | increased to a lesser extent | significantly increase | increased to a lesser extent | increased |
